Measurements taken from ChEMBL document CHEMBL1201862, “PubChem BioAssay data set” (2004).
Active and inactive are the calls of the source.

How the values were obtained:
[1] = inhibitors of SNCA 5'UTR-driven reporter translation, confirmation, H4 neuroglioma cells, luminescence (AID 1988); format: functional, cell-based
[2] = Luminescence Cell-Based Dose Response HTS to Identify Inhibitors of 5'UTR Stem-Loop Driven Prion Protein mRNA Translation in H4 Neuroglioblastoma Cells. [Related pubchem assays: 1827 (Project Summary), 1813 (Primary HTS)]; format: functional
[3] = inhibitors of firefly luciferase expression or activity, dose response, H4 neuroglioma cells, luminescence (AID 1990); format: functional, cell-based
Cytochrome P450 2D6 = Cytochrome P450 2D6 (Homo sapiens, UniProt P10635);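 also: CYP2D6 member of a cytochrome P450 panel assay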
Cytochrome P450 1A2 = molecular target: T1, Cytochrome P450 1A2 (Homo sapiens, UniProt P05177);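 also: PubChem cytochrome P450 panel assay, CYP1A2 panel member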
T1 sequence (P05177 whole entry): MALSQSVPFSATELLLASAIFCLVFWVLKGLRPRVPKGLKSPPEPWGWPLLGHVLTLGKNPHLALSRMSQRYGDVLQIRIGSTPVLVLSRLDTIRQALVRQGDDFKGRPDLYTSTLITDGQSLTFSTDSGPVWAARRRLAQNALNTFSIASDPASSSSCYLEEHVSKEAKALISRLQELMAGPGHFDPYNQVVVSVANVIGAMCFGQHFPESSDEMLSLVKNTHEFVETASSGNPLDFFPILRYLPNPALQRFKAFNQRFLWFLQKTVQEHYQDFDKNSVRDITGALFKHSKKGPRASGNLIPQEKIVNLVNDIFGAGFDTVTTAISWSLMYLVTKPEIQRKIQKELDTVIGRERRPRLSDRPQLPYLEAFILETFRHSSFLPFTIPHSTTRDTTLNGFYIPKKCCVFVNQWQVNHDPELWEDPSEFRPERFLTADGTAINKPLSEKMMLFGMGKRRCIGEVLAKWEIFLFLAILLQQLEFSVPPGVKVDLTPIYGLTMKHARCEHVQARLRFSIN

[4] = microbe, parasite or virus in culture; format: functional; details: Mycobacterium tuberculosis
[5] = NIH-3T3 fibroblast cytotoxicity, dose response, cytotoxicity control, cell-based, fluorescence, Alamar Blue, secondary assay (AID 2327); format: functional;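 also: NIH-3T3 mouse fibroblasts cultured with fluconazole at 8 µg/mL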
[6] = C. albicans growth with fluconazole, confirmation, fluorescence, retest (AID 2467); format: functional, cell-based
Cytochrome P450 3A4 = Cytochrome P450 3A4 (Homo sapiens, UniProt P08684);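 also: CYP3A4 tested as one member of a cytochrome P450 panel screen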
H9c2 = assay: cells; format: functional, cell-based; details: Rattus norvegicus, H9c2, Myocardium;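 also: confirmatory concentration-response retest of ultra-high-throughput screening hits for modulation of myocardial damage; cell death induced by hydrogen peroxide oxidative stress; compound pretreatment for 60 min then peroxide exposure for 2 h; potency is for protecting the cells against peroxide damage rather than for killing them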
Cytochrome P450 2C9 = Cytochrome P450 2C9 (Homo sapiens, UniProt P11712)
[7] = inhibitors of intracellular T. cruzi replication, confirmation, NIH3T3 host cells, beta-gal luminescence (AID 2044); format: functional, cell-based;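 also: intracellular parasites grown in NIH/3T3 mouse fibroblasts as host cells; luminescent beta-galactosidase reporter signal from transgenic T. cruzi replicating inside host cells; inhibitors lower the luminescence signal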
[8] = cytotoxicity toward NIH3T3 fibroblasts, dose response, counter-screen, cell-based, ATP luminescence, mouse fibroblasts (AID 2010); format: functional;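 also: cells exposed to compound for about 90 hours before reading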
Cytochrome P450 2C19 = Cytochrome P450 2C19 (Homo sapiens, UniProt P33261); assay: Cytochrome panel assay with activity outcomes. Panel member name: p450-cyp2c19 Compounds with AC50 equal or less than 10 uM are considered active; format: functional; details: read-out: AC50
Sequence of Cytochrome P450 2C19 (P33261 whole entry): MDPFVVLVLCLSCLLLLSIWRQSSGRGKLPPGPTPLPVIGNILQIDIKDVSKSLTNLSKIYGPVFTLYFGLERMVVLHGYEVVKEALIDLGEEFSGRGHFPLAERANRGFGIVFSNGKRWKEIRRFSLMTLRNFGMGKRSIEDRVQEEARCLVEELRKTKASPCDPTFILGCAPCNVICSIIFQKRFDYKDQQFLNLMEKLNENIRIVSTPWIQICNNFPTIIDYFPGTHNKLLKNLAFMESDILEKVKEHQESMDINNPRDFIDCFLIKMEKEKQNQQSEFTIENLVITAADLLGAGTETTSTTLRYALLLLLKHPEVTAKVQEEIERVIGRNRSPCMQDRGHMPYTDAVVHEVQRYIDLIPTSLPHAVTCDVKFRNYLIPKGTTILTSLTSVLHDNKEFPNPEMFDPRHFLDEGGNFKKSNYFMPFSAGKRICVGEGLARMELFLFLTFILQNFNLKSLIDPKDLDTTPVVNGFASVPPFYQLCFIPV

Sequence of Cytochrome P450 2D6 (P10635 whole entry): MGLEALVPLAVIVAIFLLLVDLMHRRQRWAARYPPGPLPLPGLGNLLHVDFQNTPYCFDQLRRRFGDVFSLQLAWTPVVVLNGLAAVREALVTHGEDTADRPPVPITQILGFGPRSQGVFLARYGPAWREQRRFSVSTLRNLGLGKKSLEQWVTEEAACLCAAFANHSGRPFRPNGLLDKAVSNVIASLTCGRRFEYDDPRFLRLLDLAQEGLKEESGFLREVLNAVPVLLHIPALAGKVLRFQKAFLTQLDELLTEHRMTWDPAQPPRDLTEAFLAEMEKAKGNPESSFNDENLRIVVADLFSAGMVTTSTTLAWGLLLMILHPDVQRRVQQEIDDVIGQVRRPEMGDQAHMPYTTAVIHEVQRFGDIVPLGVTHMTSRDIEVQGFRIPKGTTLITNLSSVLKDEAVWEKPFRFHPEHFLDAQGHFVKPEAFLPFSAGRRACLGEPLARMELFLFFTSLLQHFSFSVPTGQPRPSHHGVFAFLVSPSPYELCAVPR
Sequence of Cytochrome P450 3A4 (P08684 whole entry): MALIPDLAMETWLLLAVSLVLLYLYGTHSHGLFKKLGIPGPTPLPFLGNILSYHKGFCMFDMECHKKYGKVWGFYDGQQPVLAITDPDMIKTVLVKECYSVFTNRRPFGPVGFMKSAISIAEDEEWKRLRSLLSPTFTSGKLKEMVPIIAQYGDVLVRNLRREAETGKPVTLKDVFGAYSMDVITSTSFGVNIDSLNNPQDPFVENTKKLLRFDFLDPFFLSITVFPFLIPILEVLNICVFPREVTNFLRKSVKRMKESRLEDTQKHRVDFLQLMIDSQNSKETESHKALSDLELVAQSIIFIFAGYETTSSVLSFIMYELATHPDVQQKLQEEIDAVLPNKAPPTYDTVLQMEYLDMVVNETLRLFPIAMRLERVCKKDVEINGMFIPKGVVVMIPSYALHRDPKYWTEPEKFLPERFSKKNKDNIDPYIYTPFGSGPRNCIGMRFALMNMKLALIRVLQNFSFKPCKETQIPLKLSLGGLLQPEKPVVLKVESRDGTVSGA
Sequence of Cytochrome P450 2C9 (P11712 whole entry): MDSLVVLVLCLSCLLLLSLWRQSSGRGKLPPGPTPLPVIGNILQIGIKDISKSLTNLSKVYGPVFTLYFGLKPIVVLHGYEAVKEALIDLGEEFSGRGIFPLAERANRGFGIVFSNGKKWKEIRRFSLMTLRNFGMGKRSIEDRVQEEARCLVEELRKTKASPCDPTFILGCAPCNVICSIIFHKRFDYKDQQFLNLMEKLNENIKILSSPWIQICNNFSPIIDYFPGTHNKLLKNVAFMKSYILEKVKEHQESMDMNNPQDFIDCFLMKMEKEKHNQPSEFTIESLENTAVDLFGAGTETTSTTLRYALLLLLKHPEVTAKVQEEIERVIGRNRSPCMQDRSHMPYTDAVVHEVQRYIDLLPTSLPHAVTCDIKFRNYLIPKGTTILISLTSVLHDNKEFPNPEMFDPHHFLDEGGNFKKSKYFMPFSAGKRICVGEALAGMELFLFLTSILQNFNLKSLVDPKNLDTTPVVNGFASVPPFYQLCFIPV

For COc1ccc(Cl)cc1N(CC(=O)Nc1ccccc1C(=O)NCc1ccco1)S(C)(=O)=O, the EC50 [1] was > 120 µM (not active), the EC50 [2] was > 120 µM (not active) and the EC50 [3] was > 120 µM (not active).
With Fc1ccc(Nc2ccnc(-c3ccoc3)n2)cc1 the AC50 (Cytochrome P450 2D6) was 20 µM (inconclusive).
With O=C(COc1ccc(Oc2ccccc2)cc1)NCc1cn2ccccc2n1 the EC50 [1] was 8.5 µM (active), the EC50 [2] was 14.8 µM (active) and the EC50 [3] was 12.7 µM (active).
With COc1ccccc1-n1c(SCC(=O)Nc2ccccc2F)nc2nncc-2c1O the AC50 (Cytochrome P450 2D6) was 8.91 µM (inconclusive) and the AC50 (Cytochrome P450 1A2) was 28.2 µM (inconclusive).
In the case of C/C(CCN1CCCCc2nc(C)c(C)cc21)=N\OC[C@@H](O)COCc1ccco1, the AC50 (Cytochrome P450 2D6) is reported as 7.94 µM (inconclusive).
In the case of Cc1ccc2nc(N/N=C/c3ccccc3C#N)nc(-c3ccccc3)c2c1, the CC50 [4] is reported as 28.8 µM (active).
With O=C(c1ccccc1)c1c[nH]c(C(=O)NCc2cccnc2)c1 the AC50 (Cytochrome P450 2D6) was 15.8 µM (inconclusive).
For CCOC(=O)Cc1csc(NC(=O)c2c(O)c3c(n(CC(C)C)c2=O)CCCC3)n1, the CC50 [4] was > 40 µM (active).
For CCOP(=O)(OCC)c1nc(-c2ccc(Cl)cc2Cl)oc1N1CCCCC1, the EC50 [1] was 20.3 µM (active), the EC50 [2] was > 120 µM (not active) and the EC50 [3] was > 120 µM (not active).
With NC(=O)/C(=C\c1ccncc1)c1cccc2ccccc12 the AC50 (Cytochrome P450 2D6) was 2 µM (inconclusive).
For OC(c1ccccc1)(c1ccc(F)cc1)C(c1ccccc1)N1CCOCC1 (configuration not stated), the AC50 (Cytochrome P450 2D6) was 14.1 µM (inconclusive).
With Cc1nn(Cc2ccccc2Cl)c(C)c1NC(=O)CCCn1nc(C)c([N+](=O)[O-])c1C the EC50 [1] was > 120 µM (not active), the EC50 [2] was > 120 µM (not active) and the EC50 [3] was 21 µM (active).
With Cc1nn(-c2ccccc2)c(N2CCCC2)c1/C=N/NC(=O)c1ccccc1O the EC50 [5] was > 150 µM (inactive), the EC50 [1] was 27.3 µM (active) and the EC50 [6] was > 38 µM (not active). For the same molecule, the EC50 [2] was > 120 µM (not active) and the EC50 [3] was 29.2 µM (active).
In the case of CC(=O)c1cccc(NC(=O)CN2C(=O)COc3ccc(S(=O)(=O)N4CCOCC4)cc32)c1, the EC50 [1] is reported as > 120 µM (not active), the EC50 [2] is reported as > 120 µM (not active) and the EC50 [3] is reported as > 120 µM (not active).
For CN1CC[C@@]2(CCCN(C(=O)c3ccco3)C2)C1, the AC50 (Cytochrome P450 2D6) was 20 µM (inconclusive) and the AC50 (Cytochrome P450 3A4) was 20 µM (inconclusive).
With CCCCCn1nc(C(=O)OCC(=O)c2c(N)n(C)c(=O)n(C)c2=O)c2ccccc2c1=O the IC50 (H9c2) was > 79 µM (inactive).
With CC(NC(=O)Cc1ccc(F)cc1)c1ccccc1 (configuration not stated) the AC50 (Cytochrome P450 2D6) was 15.8 µM (inconclusive), the AC50 (Cytochrome P450 3A4) was 25.1 µM (inconclusive) and the AC50 (Cytochrome P450 2C9) was 10 µM (inconclusive).
For N#Cc1ccc(-c2ccc(F)cc2)nc1Oc1ccc(F)cc1, the EC50 [1] was > 120 µM (not active), the EC50 [2] was 22.6 µM (active) and the EC50 [3] was > 120 µM (not active).
For Cn1cc(-c2nc3cnc(N4CCNCC4)nc3n(Cc3ccc(F)cc3)c2=O)c2ccccc21, the AC50 (Cytochrome P450 2D6) was 20 µM (inconclusive) and the AC50 (Cytochrome P450 1A2) was 20 µM (inconclusive).
With Clc1nc2c(-c3ccccc3)nnn2c2ccccc12 the EC50 [7] was 2.55 µM (active), the EC50 [8] was > 60 µM (not active) and the CC50 [4] was 27.3 µM (active).
For O=C(CCCSc1nc(O)c2c3c(sc2n1)CCC3)NCCO, the IC50 (H9c2) was > 79 µM (inactive).
For O=C(CSc1ccc(Cl)cc1)N1CCC(c2nc3ccccc3s2)CC1, the CC50 [4] was 34.7 µM (active).
With COc1ccc(OC)c(NC(=O)CN2C(=O)CSc3ccc(S(=O)(=O)N4CCCC4)cc32)c1 the EC50 [1] was > 120 µM (not active), the EC50 [2] was > 120 µM (not active) and the EC50 [3] was > 120 µM (not active).
In the case of O=C(C[C@H]1C/C=C\CC[C@H](Cc2ccc(F)cc2)C(=O)O[C@@H](c2ccccc2)CNC1=O)N[C@H](CO)Cc1ccccc1, the IC50 (H9c2) is reported as > 79 µM (inactive).
For CCn1nc(C(=O)NNC(=O)c2cc(Cl)ccc2OC)c2ccccc2c1=O, the IC50 (H9c2) was > 79 µM (inactive).
In the case of COC(=O)COc1ccc(-c2nccc(-c3ccccn3)n2)cc1, the EC50 [1] is reported as 0.159 µM (active), the EC50 [2] is reported as 7.98 µM (active) and the EC50 [3] is reported as < 0.1 µM (active).
For CC(=O)Nc1cccc(NC(=O)c2cc(-c3cccnc3)nc3ccc(Cl)cc23)c1, the IC50 (H9c2) was > 79 µM (inactive).
With O=C(C1=C[C@@H](c2csc3ccccc23)C[C@@H](OCc2ccc(CO)cc2)O1)N1CCN(Cc2ccc3c(c2)OCO3)CC1 the EC50 [1] was 9.17 µM (active), the EC50 [2] was > 120 µM (not active) and the EC50 [3] was 11.3 µM (active).
In the case of Cn1cccc1C(=O)N1CCC2(CC1)CN(Cc1cc(C(F)(F)F)cc(C(F)(F)F)c1)C2, the AC50 (Cytochrome P450 2D6) is reported as 25.1 µM (inconclusive) and the AC50 (Cytochrome P450 1A2) is reported as 10 µM (inconclusive).
In the case of O=C(C1CCN(c2nc(-c3ccccc3)nc3c2CCC3)CC1)N1CCCC1, the EC50 [1] is reported as 16.7 µM (active), the EC50 [2] is reported as 24.7 µM (active) and the EC50 [3] is reported as > 120 µM (not active).
With Cc1ccc(S(=O)(=O)N2CCN(C(=O)CCc3nc(O)c4ccccc4n3)CC2)c(C)c1 the IC50 (H9c2) was > 79 µM (inactive).
In the case of Cc1ccc(NC(=O)CSC(C)C(=O)OCc2cc(=O)oc3cc(O)ccc23)cc1 (configuration not stated), the IC50 (H9c2) is reported as > 79 µM (inactive).
With C/C(=N\Nc1ccc(S(=O)(=O)N2CCCCC2)cn1)c1cccc(Br)c1 the CC50 [4] was > 40 µM (active).
With CC1CCc2cc(F)ccc2N1C(=O)CSc1n[nH]c2c3cc(F)ccc3nc-2n1 (configuration not stated) the AC50 (Cytochrome P450 2D6) was 14.1 µM (inconclusive) and the AC50 (Cytochrome P450 2C19) was 0.562 µM (inconclusive).
For CCOC(=O)C(Cc1ccc(NC(=O)/C(=C/c2ccc(OC(C)=O)cc2)NC(C)=O)cc1)N1C(=O)c2ccccc2C1=O (configuration not stated), the IC50 (H9c2) was > 79 µM (inactive).
For COc1cccc(Nc2nc3ccccc3n3nnnc23)c1, the IC50 (H9c2) was > 79 µM (inactive).
In the case of O=C(Cc1ccccc1[N+](=O)[O-])NCCSCc1c(F)cccc1Cl, the AC50 (Cytochrome P450 2D6) is reported as 2.82 µM (inconclusive) and the AC50 (Cytochrome P450 1A2) is reported as 5.62 µM (inconclusive).
With COc1cccc(C(=O)Nc2cc(C)c3c(=O)oc4ccccc4c3n2)c1 the IC50 (H9c2) was > 79 µM (inactive).
With Cn1c(C(=O)NCCc2ccsc2)cc2c(=O)n(C)c3ccccc3c21 the IC50 (H9c2) was > 79 µM (inactive).
For O=C(CN1CCCCC1)Nc1nc(-c2ccc(F)c(F)c2)cs1, the IC50 (H9c2) was > 79 µM (inactive).
For COc1ccccc1-n1c2nc3ccccc3nc2c2c(=O)n(-c3cc(C)cc(C)c3)cnc21, the EC50 [1] was > 120 µM (not active), the EC50 [2] was 0.528 µM (active) and the EC50 [3] was > 120 µM (not active).
